# Measurements: patent US11214594B2, “Antimicrobial peptide having synergistic antibacterial effect with antibiotics on multidrug resistant bacteria, and use thereof” (priority 2016, dated 2022)
# Where a SMILES comes first, the peptide text is derived from it.
# What was measured:
# MDREC 1229 [1] = test: MIC of antibiotic during combined treatment with antimicrobial peptide; assay type: cell-based, Escherichia coli
# Method in brief: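 Strains in MH medium at 2×10^6 CFU/ml were mixed with peptide diluted stepwise (2:1) from its MIC, then antibiotic dilutions in MH medium were added to give the antibiotic MIC. The reversed set-up, peptide titrated against fixed antibiotic, gave the peptide MIC.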
# S. epidermidis = test: microbe, parasite or virus in culture; assay type: cell-based, Staphylococcus epidermidis
# Method in brief: (§1)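 Broth microdilution in MH medium: strains diluted to 2×10^6 CFU were mixed with equal volumes of twofold serial peptide dilutions in MH medium. MIC was taken as the lowest peptide concentration preventing bacterial growth.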
# MDRPA 2002 = assay type: cell-based, Pseudomonas aeruginosa
# Method in brief: as §1
# MDRPA 2003 = assay type: cell-based, Pseudomonas aeruginosa
# Method in brief: as §1
# B. subtilis = test: microbe, parasite or virus in culture; assay type: cell-based, Bacillus subtilis
# Method in brief: as §1
# A. baumannii = test: MIC of antibiotic during combined treatment with antimicrobial peptide; assay type: cell-based, Acinetobacter baumannii; conditions: for Antibiotic MIC, Erythromycin / Antibiotic MIC, Linezolid / Antibiotic MIC, Vancomycin: A. baumannii
# Method in brief: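 Read-out is the MIC of each combined solution, obtained from MH-medium dilutions of antibiotic added well by well, with a reversed-condition run as well.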
# P. aeruginosa = test: microbe, parasite or virus in culture; assay type: cell-based, Pseudomonas aeruginosa
# Method in brief: as §1
# MDREC 1229 [2] = test: microbe, parasite or virus in culture; assay type: cell-based, Escherichia coli
# Method in brief: as §1
# E. coli = test: microbe, parasite or virus in culture; assay type: cell-based, Escherichia coli; conditions: 16 h
# Method in brief: as §1
# MDRST 8007 = test: Minimal inhibitory concentration (MIC), single agent; assay type: cell-based, Salmonella typhimurium; conditions: agent alone
# Method in brief: as §1
# [3] = peptide treatment concentration 2 μg/ml
# [4] = peptide treatment concentration 4 μg/ml
# [5] = peptide treatment concentration 6 μg/ml
# [6] = peptide treatment concentration 8 μg/ml
# [7] = peptide treatment concentration 16 μg/ml
# [8] = peptide treatment concentration 32 μg/ml
# [9] = peptide treatment concentration 64 μg/ml
# [10] = combined with peptide at 1 μg/ml
# [11] = combined with peptide at 2 μg/ml
# [12] = combined with peptide at 4 μg/ml
# [13] = combined with peptide at 6 μg/ml
# [14] = combined with peptide at 8 μg/ml
# [15] = combined with peptide at 16 μg/ml
# [16] = combined with peptide at 32 μg/ml
# [17] = combined with peptide at 64 μg/ml
smiles,measurement,setting,value
"CC[C@H](C)[C@H](NC(=O)[C@H](CCCCN)NC(=O)[C@H](Cc1c[nH]c2ccccc12)NC(=O)[C@@H](N)CCCNC(=N)N)C(=O)N[C@@H](Cc1ccccc1)C(=O)N[C@@H](CCCCN)C(=O)N[C@@H](CCCCN)C(=O)N[C@H](C(=O)N1CCC[C@H]1C(=O)N[C@@H](CCCCN)C(=O)N[C@@H](Cc1ccccc1)C(=O)N[C@@H](CC(C)C)C(=O)N[C@@H](Cc1c[nH]cn1)C(=O)N[C@@H](CO)C(=O)N[C@@H](CC(C)C)C(=O)N[C@@H](CCCCN)C(=O)N[C@@H](CCCCN)C(=O)N[C@@H](Cc1ccccc1)C(N)=O)[C@@H](C)CC [PapMA-6, RWK IFK KIP KFL HSL KKF-NH2] (H-RWKIFKKIPKFLHSLKKF-NH2; N-terminus assumed)","Antibiotic MIC, Vancomycin",MDREC 1229 [1]; peptide treatment concentration 1 μg/ml,>128 µg/mL
same,"Antibiotic MIC, Erythromycin",MDREC 1229 [1]; [3],32 µg/mL
same,"Antibiotic MIC, Linezolid",MDREC 1229 [1]; [3],64 µg/mL
same,"Antibiotic MIC, Vancomycin",MDREC 1229 [1]; [3],>128 µg/mL
same,"Antibiotic MIC, Erythromycin",MDREC 1229 [1]; [4],8 µg/mL
same,"Antibiotic MIC, Linezolid",MDREC 1229 [1]; [4],32 µg/mL
same,"Antibiotic MIC, Vancomycin",MDREC 1229 [1]; [4],>128 µg/mL
same,"Antibiotic MIC, Erythromycin",MDREC 1229 [1]; [5],2 µg/mL
same,"Antibiotic MIC, Linezolid",MDREC 1229 [1]; [5],8 µg/mL
same,"Antibiotic MIC, Vancomycin",MDREC 1229 [1]; [5],64 µg/mL
same,"Antibiotic MIC, Erythromycin",MDREC 1229 [1]; [6],1 µg/mL
same,"Antibiotic MIC, Linezolid",MDREC 1229 [1]; [6],8 µg/mL
same,"Antibiotic MIC, Vancomycin",MDREC 1229 [1]; [6],16 µg/mL
same,"Antibiotic MIC, Erythromycin",MDREC 1229 [1]; [7],0.25 µg/mL
same,"Antibiotic MIC, Linezolid",MDREC 1229 [1]; [7],4 µg/mL
same,"Antibiotic MIC, Vancomycin",MDREC 1229 [1]; [7],4 µg/mL
same,"Antibiotic MIC, Erythromycin",MDREC 1229 [1]; [8],0.125 µg/mL
same,"Antibiotic MIC, Linezolid",MDREC 1229 [1]; [8],1 µg/mL
same,"Antibiotic MIC, Vancomycin",MDREC 1229 [1]; [8],2 µg/mL
same,"Antibiotic MIC, Erythromycin",MDREC 1229 [1]; [9],0 µg/mL
same,"Antibiotic MIC, Linezolid",MDREC 1229 [1]; [9],0 µg/mL
same,"Antibiotic MIC, Vancomycin",MDREC 1229 [1]; [9],0 µg/mL
same,Minimal inhibitory concentration MIC,S. epidermidis,>128 µg/mL
same,Minimal inhibitory concentration MIC,MDRPA 2002,32 µg/mL
same,Minimal inhibitory concentration MIC,MDRPA 2003,32 µg/mL
same,Minimal inhibitory concentration MIC,B. subtilis,>128 µg/mL
same,Synergistic effect of antibacterial activity with existing antibiotics compared with PapMA-1,A. baumannii; A. baumannii and MDRAB 12035,higher level than the PapMA-1 peptide
same,"Antibiotic MIC, Erythromycin",A. baumannii; [10],16 µg/mL
same,"Antibiotic MIC, Linezolid",A. baumannii; [10],128 µg/mL
same,"Antibiotic MIC, Vancomycin",A. baumannii; [10],>128 µg/mL
same,"Antibiotic MIC, Erythromycin",A. baumannii; [11],8 µg/mL
same,"Antibiotic MIC, Linezolid",A. baumannii; [11],64 µg/mL
same,"Antibiotic MIC, Vancomycin",A. baumannii; [11],128 µg/mL
same,"Antibiotic MIC, Erythromycin",A. baumannii; [12],4 µg/mL
same,"Antibiotic MIC, Linezolid",A. baumannii; [12],8 µg/mL
same,"Antibiotic MIC, Vancomycin",A. baumannii; [12],16 µg/mL
same,"Antibiotic MIC, Erythromycin",A. baumannii; [13],2 µg/mL
same,"Antibiotic MIC, Linezolid",A. baumannii; [13],4 µg/mL
same,"Antibiotic MIC, Vancomycin",A. baumannii; [13],8 µg/mL
same,"Antibiotic MIC, Erythromycin",A. baumannii; [14],0.125 µg/mL
same,"Antibiotic MIC, Linezolid",A. baumannii; [14],2 µg/mL
same,"Antibiotic MIC, Vancomycin",A. baumannii; [14],4 µg/mL
same,"Antibiotic MIC, Erythromycin",A. baumannii; [15],0.0625 µg/mL
same,"Antibiotic MIC, Linezolid",A. baumannii; [15],0.5 µg/mL
same,"Antibiotic MIC, Vancomycin",A. baumannii; [15],2 µg/mL
same,"Antibiotic MIC, Erythromycin",A. baumannii; [16],0 µg/mL
same,"Antibiotic MIC, Linezolid",A. baumannii; [16],0 µg/mL
same,"Antibiotic MIC, Vancomycin",A. baumannii; [16],0 µg/mL
same,"Antibiotic MIC, Erythromycin",A. baumannii; [17],0 µg/mL
same,"Antibiotic MIC, Linezolid",A. baumannii; [17],0 µg/mL
same,"Antibiotic MIC, Vancomycin",A. baumannii; [17],0 µg/mL
same,Minimal inhibitory concentration MIC,P. aeruginosa,16 µg/mL
same,Antibacterial activity (in words),P. aeruginosa; P. aeruginosa and S. typhimurium,significantly increased
same,Minimal inhibitory concentration MIC,MDREC 1229 [2],64 µg/mL
same,Minimal inhibitory concentration MIC,E. coli,64 µg/mL
same,Minimal inhibitory concentration MIC,MDRST 8007,32 µg/mL
